How the values were obtained:
Type in all cases: cell-based
[1] = tested on: J774A.1 (Mouse BALB/c monocyte macrophage cell line) cells; test: LPS+ATP-induced IL-1β secretion inhibition in J774A.1 cells; conditions: J774.A1, 1 μM compound, graded compared to taurodeoxycholic acid (positive control), read-out: IL-1β production inhibition grade
Procedure, shortened: (§1)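 Mouse J774A.1 macrophages treated with 1 μM compound; TNF-α secretion measured after LPS stimulation and IL-1β secretion after LPS+ATP stimulation. Suppression graded against taurodeoxycholic acid: A over 100%, B 50–100%, C 20–50%, D under 20%.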

[2] = tested on: U937 cells (human monocytic cell line); test: BzATP-induced IL-1β secretion inhibition in PMA-differentiated U937 cells; conditions: U-937, U937 cells differentiated with PMA, read-out: IL-1β production inhibition grade (IC50)
Procedure, shortened: (§2)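 U937 cells were PMA-differentiated into macrophages and treated with compound before inflammatory stimulus. TNF-α secretion was induced with Pam2CSK4 and IL-1β secretion with BzATP. IC50 (μM) values are graded A-D, with separate cut-offs per cytokine.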

[3] = tested on: J774A.1 (Mouse BALB/c monocyte macrophage cell line) cells; test: LPS-induced TNF-α secretion inhibition in J774A.1 cells; conditions: J774.A1, 1 μM compound, graded compared to taurodeoxycholic acid (positive control), read-out: TNF-α production inhibition grade
Procedure, shortened: as §1

[4] = tested on: U937 cells (human monocytic cell line); test: Pam2CSK4-induced TNF-α secretion inhibition in PMA-differentiated U937 cells; conditions: U-937, U937 cells differentiated with PMA, read-out: TNF-α production inhibition grade (IC50)
Procedure, shortened: as §2

SMILES | inhibition at 1 µM [1] | IC50 [2] | inhibition at 1 µM [3] | IC50 [4]
CC[C@H]1[C@@H](O)[C@@H]2[C@H](CC[C@]3(C)[C@@H]([C@H](C)CCC(=O)N4CC[C@@H](S(=O)(=O)O)C4)CC[C@@H]23)[C@@]2(C)CC[C@@H](O)C[C@@H]12 [NC40034] | > 100% | < 50 nM | 20 to 50% | < 500 nM
C[C@H](CCC(=O)NC[C@H](C)S(=O)(=O)O)[C@H]1CC[C@H]2[C@@H]3CC[C@@H]4C[C@H](O)CC[C@]4(C)[C@H]3CC[C@]12C [NC10078] | > 100% | < 50 nM | < 20% | < 500 nM
C[C@H](CCC(=O)N[C@@H](C)CS(=O)(=O)O)[C@H]1CC[C@H]2[C@@H]3CC[C@@H]4C[C@H](O)CC[C@]4(C)[C@H]3C[C@H](O)[C@]12C [NC10043] | > 100% | 100 to 200 nM | < 20% | < 500 nM
CC[C@H]1[C@@H](O)[C@@H]2[C@H](CC[C@]3(C)[C@@H]([C@H](C)CCC(=O)NC4(CS(=O)(=O)O)CC4)CC[C@@H]23)[C@@]2(C)CC[C@@H](O)C[C@@H]12 [NC40032] | < 20% | ≥ 200 nM | < 20% | 1000 to 2000 nM
C[C@H](CCC(=O)N(CCS(=O)(=O)O)Cc1cccnc1)[C@H]1CC[C@H]2[C@@H]3[C@H](O)C[C@@H]4C[C@H](O)CC[C@]4(C)[C@H]3C[C@H](O)[C@]12C [NC20036] | < 20% | 50 to 100 nM | < 20% | 500 to 1000 nM
C[C@H](CCC(=O)N1CC(S(=O)(=O)O)C1)[C@H]1CC[C@H]2[C@@H]3CC[C@@H]4C[C@H](O)CC[C@]4(C)[C@H]3C[C@H](O)[C@]12C [NC10028] | > 100% | 50 to 100 nM | < 20% | ≥ 2000 nM
C[C@H](CCC(=O)N[C@H](CO)CS(=O)(=O)O)[C@H]1CC[C@H]2[C@@H]3[C@H](O)C[C@@H]4C[C@H](O)CC[C@]4(C)[C@H]3C[C@H](O)[C@]12C [NC20025] | < 20% | ≥ 200 nM | < 20% | ≥ 2000 nM
CC(C)C[C@H](CS(=O)(=O)O)NC(=O)CC[C@@H](C)[C@H]1CC[C@H]2[C@@H]3CC[C@@H]4CC(=O)CC[C@]4(C)[C@H]3CC[C@]12C [NC30031] | 20 to 50% | ≥ 200 nM | < 20% | 500 to 1000 nM
CC[C@H]1[C@@H](O)[C@@H]2[C@H](C[C@H](O)[C@]3(C)[C@@H]([C@H](C)CCC(=O)NC4(CS(=O)(=O)O)CC4)CC[C@@H]23)[C@@]2(C)CC[C@@H](O)C[C@@H]12 [NC50032] | 50 to 100% | 50 to 100 nM | < 20% | ≥ 2000 nM
C[C@H](CCC(=O)N1CCC[C@@H](S(=O)(=O)O)C1)[C@H]1CC[C@H]2[C@@H]3CC[C@@H]4C[C@H](O)CC[C@]4(C)[C@H]3C[C@H](O)[C@]12C [NC10027] | > 100% | < 50 nM | < 20% | 500 to 1000 nM
CC[C@H]1[C@@H](O)[C@@H]2[C@H](CC[C@]3(C)[C@@H]([C@H](C)CCC(=O)N[C@H](CS(=O)(=O)O)c4ccccc4)CC[C@@H]23)[C@@]2(C)CC[C@@H](O)C[C@@H]12 [NC40018] | > 100% | < 50 nM | < 20% | < 500 nM
C[C@H](CCC(=O)N(CCN(C)C)CCS(=O)(=O)O)[C@H]1CC[C@H]2[C@@H]3CC[C@@H]4C[C@H](O)CC[C@]4(C)[C@H]3CC[C@]12C [NC10091] | > 100% | < 50 nM | > 100% | 500 to 1000 nM
CC(C)C[C@H](CS(=O)(=O)O)NC(=O)CC[C@@H](C)[C@H]1CC[C@H]2[C@@H]3[C@H](O)C[C@@H]4C[C@H](O)CC[C@]4(C)[C@H]3C[C@H](O)[C@]12C [NC20031] | 50 to 100% | 50 to 100 nM | < 20% | < 500 nM
CC(C)[C@@H](CS(=O)(=O)O)NC(=O)CC[C@@H](C)[C@H]1CC[C@H]2[C@@H]3CC[C@@H]4CC(=O)CC[C@]4(C)[C@H]3CC[C@]12C [NC30016] | 20 to 50% | ≥ 200 nM | 20 to 50% | < 500 nM
CC(C)C[C@H](CS(=O)(=O)O)NC(=O)CC[C@@H](C)[C@H]1CC[C@H]2[C@@H]3CC[C@@H]4C[C@H](O)CC[C@]4(C)[C@H]3C[C@H](O)[C@]12C [NC10046] | 50 to 100% | 100 to 200 nM | < 20% | < 500 nM
C[C@H](CCC(=O)N[C@@H](CS(=O)(=O)O)c1ccccc1)[C@H]1CC[C@H]2[C@@H]3CC[C@@H]4CC(=O)CC[C@]4(C)[C@H]3CC[C@]12C [NC30019] | < 20% | ≥ 200 nM | < 20% | 1000 to 2000 nM
C[C@H](CCC(=O)NC(C)(C)CS(=O)(=O)O)[C@H]1CC[C@H]2[C@@H]3CC[C@@H]4C[C@H](O)CC[C@]4(C)[C@H]3CC[C@]12C [NC10064] | < 20% | < 50 nM | < 20% | < 500 nM
C[C@H](CCC(=O)NC(C)(C)CS(=O)(=O)O)[C@H]1CC[C@H]2[C@@H]3[C@H](O)C[C@@H]4C[C@H](O)CC[C@]4(C)[C@H]3C[C@H](O)[C@]12C [NC20013] | > 100% | < 50 nM | < 20% | 1000 to 2000 nM
C[C@H](CCC(=O)N[C@@H]1CCCC[C@@H]1S(=O)(=O)O)[C@H]1CC[C@H]2[C@@H]3[C@H](O)C[C@@H]4C[C@H](O)CC[C@]4(C)[C@H]3C[C@H](O)[C@]12C [NC20026] | 50 to 100% | 100 to 200 nM | < 20% | 1000 to 2000 nM
C[C@H](CCC(=O)N1CCC[C@@H](S(=O)(=O)O)C1)[C@H]1CC[C@H]2[C@@H]3CC[C@@H]4CC(=O)CC[C@]4(C)[C@H]3CC[C@]12C [NC30010] | 50 to 100% | < 50 nM | > 100% | 500 to 1000 nM
CC[C@H]1[C@@H](O)[C@@H]2[C@H](C[C@H](O)[C@]3(C)[C@@H]([C@H](C)CCC(=O)N[C@H]4CCCC[C@H]4S(=O)(=O)O)CC[C@@H]23)[C@@]2(C)CC[C@@H](O)C[C@@H]12 [NC50027] | 20 to 50% | ≥ 200 nM | < 20% | 1000 to 2000 nM
C[C@H](CCC(=O)N(CCN(C)C)CCS(=O)(=O)O)[C@H]1CC[C@H]2[C@@H]3[C@H](O)C[C@@H]4C[C@H](O)CC[C@]4(C)[C@H]3C[C@H](O)[C@]12C [NC20035] | < 20% | 50 to 100 nM | < 20% | 1000 to 2000 nM
CC[C@H]1[C@@H](O)[C@@H]2[C@H](C[C@H](O)[C@]3(C)[C@@H]([C@H](C)CCC(=O)N4CCC[C@H]4CS(=O)(=O)O)CC[C@@H]23)[C@@]2(C)CC[C@@H](O)C[C@@H]12 [NC50021] | 20 to 50% | ≥ 200 nM | < 20% | 500 to 1000 nM
CC(C)C[C@@H](CS(=O)(=O)O)NC(=O)CC[C@@H](C)[C@H]1CC[C@H]2[C@@H]3CC[C@@H]4C[C@H](O)CC[C@]4(C)[C@H]3CC[C@]12C [NC10086] | < 20% | ≥ 200 nM | < 20% | < 500 nM
C[C@H](CCC(=O)N(CCN(C)C)CCS(=O)(=O)O)[C@H]1CC[C@H]2[C@@H]3CC[C@@H]4C[C@H](O)CC[C@]4(C)[C@H]3C[C@H](O)[C@]12C [NC10050] | > 100% | 50 to 100 nM | < 20% | < 500 nM
C[C@H](CCC(=O)N[C@@H](C)CS(=O)(=O)O)[C@H]1CC[C@H]2[C@@H]3CC[C@@H]4C[C@H](O)CC[C@]4(C)[C@H]3CC[C@]12C [NC10084] | < 20% | ≥ 200 nM | < 20% | < 500 nM
CC[C@H]1[C@@H](O)[C@@H]2[C@H](CC[C@]3(C)[C@@H]([C@H](C)CCC(=O)N(CCS(=O)(=O)O)Cc4cccnc4)CC[C@@H]23)[C@@]2(C)CC[C@@H](O)C[C@@H]12 [NC40036] | 50 to 100% | 50 to 100 nM | < 20% | 1000 to 2000 nM
CC(C)[C@@H](CS(=O)(=O)O)NC(=O)CC[C@@H](C)[C@H]1CC[C@H]2[C@@H]3CC[C@@H]4C[C@H](O)CC[C@]4(C)[C@H]3CC[C@]12C [NC10072] | 20 to 50% | < 50 nM | < 20% | < 500 nM
C[C@H](CCC(=O)N[C@@H](CO)CS(=O)(=O)O)[C@H]1CC[C@H]2[C@@H]3CC[C@@H]4C[C@H](O)CC[C@]4(C)[C@H]3CC[C@]12C [NC10080] | > 100% | 100 to 200 nM | < 20% | 500 to 1000 nM
